Assay results as given in PubChem BioAssay AID248 (DTP/NCI, 2004).
Where “and” joins values, the source holds several entries; their conditions need not be identical. Equal entries are not always repeated. Inconclusive results and toxic doses are left out.

Test system: L1210 leukemia ip in BDF1 mice, survival T/C
Assay: NCI In Vivo Anticancer Drug Screen. Data for tumor model L1210 Leukemia (intraperitoneal) in B6D2F1 (BDF1) mice
Settings: endpoint: mean survival time, higher = longer survival
Summary of the method: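 In this screen, tumor-bearing mice given compound are compared to those given vehicle, and their survival values are reported as a treated-to-control quotient.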

[1] = dose: 25.0 mg/kg/injection, schedule: Q01DX001 (ip), vehicle: other
[2] = dose: 25.0 mg/kg/injection, schedule: Q01DX001 (ip), vehicle: saline
[3] = dose: 100.0 mg/kg/injection, schedule: Q04DX002 (ip), vehicle: Klucel (hydroxypropylcellulose) (HPC)
[4] = dose: 200.0 mg/kg/injection, schedule: Q04DX002 (ip), vehicle: Klucel (hydroxypropylcellulose) (HPC)
[5] = dose: 400.0 mg/kg/injection, schedule: Q04DX002 (ip), vehicle: Klucel (hydroxypropylcellulose) (HPC)
[6] = dose: 50.0 mg/kg/injection, schedule: Q01DX001 (ip), vehicle: saline
[7] = dose: 100.0 mg/kg/injection, schedule: Q01DX001 (ip), vehicle: carboxymethylcellulose (CMC)
[8] = dose: 100.0 mg/kg/injection, schedule: Q01DX001 (ip), vehicle: saline
[9] = dose: 200.0 mg/kg/injection, schedule: Q01DX001 (ip), vehicle: saline
[10] = dose: 400.0 mg/kg/injection, schedule: Q01DX001 (ip), vehicle: saline
[11] = dose: 12.5 mg/kg/injection, schedule: Q01DX009 (ip), vehicle: Klucel (hydroxypropylcellulose) (HPC)
[12] = dose: 100.0 mg/kg/injection, schedule: Q04DX003 (ip), vehicle: Klucel (hydroxypropylcellulose) (HPC)
[13] = dose: 200.0 mg/kg/injection, schedule: Q04DX003 (ip), vehicle: Klucel (hydroxypropylcellulose) (HPC)

SMILES: CCN1CC1 (tested in a mixture with another compound)
- T/C (dose: 1.56 mg/kg/injection, schedule: Q01DX001 (ip), vehicle: Klucel (hydroxypropylcellulose) (HPC)): 101 % of control
- T/C (dose: 3.12 mg/kg/injection, schedule: Q01DX001 (ip), vehicle: Klucel (hydroxypropylcellulose) (HPC)): 99 % of control
- T/C (dose: 6.25 mg/kg/injection, schedule: Q01DX001 (ip), vehicle: Klucel (hydroxypropylcellulose) (HPC)): 104 % of control
- T/C [1]: 111 % of control

SMILES: c1ccc2c(c1)NCCN2
- T/C (dose: 12.5 mg/kg/injection, schedule: Q01DX001 (ip), vehicle: saline): 97 % of control
- T/C [2]: 94 % of control

SMILES: CCCCCCCCCCCCCCC(=O)O
- T/C (dose: 100.0 mg/kg/injection, schedule: Q01DX001 (ip), vehicle: Klucel (hydroxypropylcellulose) (HPC)): 108 % of control
- T/C (dose: 200.0 mg/kg/injection, schedule: Q01DX001 (ip), vehicle: Klucel (hydroxypropylcellulose) (HPC)): 93 % of control
- T/C (dose: 400.0 mg/kg/injection, schedule: Q01DX001 (ip), vehicle: Klucel (hydroxypropylcellulose) (HPC)): 93 % of control

SMILES: COc1cc(C(=O)Cl)cc(OC)c1OC
- T/C (dose: 18.75 mg/kg/injection, schedule: Q04DX003 (ip), vehicle: saline with Tween-80): 107 % of control
- T/C (dose: 37.5 mg/kg/injection, schedule: Q04DX003 (ip), vehicle: saline with Tween-80): 102 % of control
- T/C (dose: 75.0 mg/kg/injection, schedule: Q04DX003 (ip), vehicle: saline with Tween-80): 95 % of control

SMILES: CC(CNC(=O)CCOS(C)(=O)=O)NC(=O)CCOS(C)(=O)=O (stereo unspecified)
- T/C (dose: 22.0 mg/kg/injection, schedule: Q01DX Z (ip), vehicle: carboxymethylcellulose (CMC)): 104 % of control
- T/C (dose: 33.0 mg/kg/injection, schedule: Q01DX Z (ip), vehicle: carboxymethylcellulose (CMC)): 111 % of control
- T/C (dose: 50.0 mg/kg/injection, schedule: Q01DX Z (ip), vehicle: carboxymethylcellulose (CMC)): 100 % of control and 113 % of control
- T/C (dose: 76.0 mg/kg/injection, schedule: Q01DX Z (ip), vehicle: carboxymethylcellulose (CMC)): 107 % of control
- T/C (dose: 113.0 mg/kg/injection, schedule: Q01DX Z (ip), vehicle: carboxymethylcellulose (CMC)): 153 % of control
- T/C (dose: 170.0 mg/kg/injection, schedule: Q01DX Z (ip), vehicle: carboxymethylcellulose (CMC)): 113 % of control

SMILES: COc1cccc(NC(=O)c2cccc([N+](=O)[O-])c2)c1
- T/C [3]: 94 % of control
- T/C [4]: 98 % of control
- T/C [5]: 91 % of control

SMILES: O=C1CCCC2=C1C(c1ccncc1)Nc1ccccc1N2 (stereo unspecified)
- T/C [3]: 103 % of control
- T/C [4]: 117 % of control
- T/C [5]: 109 % of control

SMILES: CCOc1cc(C=Nc2cc(Cl)c(O)c(Cl)c2)ccc1N(CCCl)CCCl
- T/C (dose: 5.0 mg/kg/injection, schedule: Q01DX009 (ip), vehicle: carboxymethylcellulose (CMC)): 114 % of control
- T/C (dose: 5.0 mg/kg/injection, schedule: Q01DX009 (ip), vehicle: saline): 105 % of control
- T/C (dose: 10.0 mg/kg/injection, schedule: Q01DX009 (ip), vehicle: saline): 106 % of control
- T/C (dose: 13.0 mg/kg/injection, schedule: Q01DX009 (ip), vehicle: carboxymethylcellulose (CMC)): 120 % of control
- T/C [2]: 109 % of control
- T/C (dose: 44.0 mg/kg/injection, schedule: Q01DX001 (ip), vehicle: carboxymethylcellulose (CMC)): 118 % of control
- T/C (dose: 44.0 mg/kg/injection, schedule: Q01DX009 (ip), vehicle: other): 113 % of control
- T/C [6]: 116 % of control
- T/C [7]: 150 % of control

SMILES: Cc1nn2cnnc2s1
- T/C [6]: 98 % of control
- T/C [8]: 101 % of control
- T/C [9]: 98 % of control
- T/C [10]: 101 % of control

SMILES: O=C1CN=C(c2ccccc2Cl)c2cc(Cl)ccc2N1
- T/C [11]: 114 % of control
- T/C (dose: 25.0 mg/kg/injection, schedule: Q01DX009 (ip), vehicle: Klucel (hydroxypropylcellulose) (HPC)): 95 % of control
- T/C (dose: 25.0 mg/kg/injection, schedule: Q04DX003 (ip), vehicle: Klucel (hydroxypropylcellulose) (HPC)): 100 % of control
- T/C (dose: 50.0 mg/kg/injection, schedule: Q01DX009 (ip), vehicle: Klucel (hydroxypropylcellulose) (HPC)): 106 % of control
- T/C (dose: 50.0 mg/kg/injection, schedule: Q04DX003 (ip), vehicle: Klucel (hydroxypropylcellulose) (HPC)): 105 % of control
- T/C (dose: 100.0 mg/kg/injection, schedule: Q01DX009 (ip), vehicle: Klucel (hydroxypropylcellulose) (HPC)): 97 % of control
- T/C [12]: 100 % of control
- T/C (dose: 200.0 mg/kg/injection, schedule: Q01DX009 (ip), vehicle: Klucel (hydroxypropylcellulose) (HPC)): 103 % of control
- T/C [13]: 120 % of control

SMILES: CCOC(=O)N/N=C/c1ccc([N+](=O)[O-])cc1
- T/C [8]: 94 % of control
- T/C [9]: 98 % of control
- T/C [10]: 102 % of control

SMILES: COc1ccc(/C=N/NC(=O)c2ccc(N)cc2)cc1
- T/C [3]: 106 % of control
- T/C [4]: 100 % of control
- T/C [5]: 95 % of control

SMILES: COc1ccc2c(c1)C1(C)CCCC(C)C1=CC2=O (stereo unspecified)
- T/C [1]: 100 % of control
- T/C (dose: 50.0 mg/kg/injection, schedule: Q01DX001 (ip), vehicle: other): 100 % of control
- T/C (dose: 100.0 mg/kg/injection, schedule: Q01DX001 (ip), vehicle: other): 97 % of control

SMILES: O=C(/C=C\c1ccc([N+](=O)[O-])cc1)OCCCCOC(=O)/C=C/c1ccc([N+](=O)[O-])cc1
- T/C [6]: 93 % of control
- T/C [8]: 96 % of control
- T/C [9]: 90 % of control
- T/C [10]: 87 % of control

SMILES: CCCCCC(=O)c1c(O)cc(=O)oc1C
- T/C (dose: 3.12 mg/kg/injection, schedule: Q01DX009 (ip), vehicle: Klucel (hydroxypropylcellulose) (HPC)): 95 % of control
- T/C (dose: 6.25 mg/kg/injection, schedule: Q01DX009 (ip), vehicle: Klucel (hydroxypropylcellulose) (HPC)): 98 % of control
- T/C [11]: 103 % of control
- T/C [12]: 90 % of control

SMILES: C1=C(c2ccccc2)N(C2CCCCCC2)C(c2ccccc2)=CN1Cc1ccccc1
- T/C [3]: 96 % of control
- T/C [4]: 107 % of control
- T/C [5]: 100 % of control

SMILES: CN(C)c1ncnc2[nH]cc([N+](=O)[O-])c12
- T/C [7]: 93 % of control
- T/C (dose: 200.0 mg/kg/injection, schedule: Q01DX001 (ip), vehicle: carboxymethylcellulose (CMC)): 93 % of control

SMILES: O=C(CCCCC(=O)Nc1ccc(C2=NCCN2)cc1)Nc1ccc(C2=NCCN2)cc1
- T/C (dose: 11.0 mg/kg/injection, schedule: Q01DX009 (ip), vehicle: saline): 123 % of control
- T/C (dose: 75.0 mg/kg/injection, schedule: Q04DX003 (ip), vehicle: saline): 123 % of control
- T/C (dose: 90.0 mg/kg/injection, schedule: Q01DX009 (ip), vehicle: saline): 256 % of control
- T/C (dose: 150.0 mg/kg/injection, schedule: Q04DX003 (ip), vehicle: saline): 123 % of control
- T/C (dose: 175.0 mg/kg/injection, schedule: Q01DX001 (ip), vehicle: saline): 108 % of control
- T/C (dose: 175.0 mg/kg/injection, schedule: Q01DX009 (ip), vehicle: saline): 212 % of control
- T/C (dose: 265.0 mg/kg/injection, schedule: Q01DX009 (ip), vehicle: saline): 214 % of control
- T/C (dose: 266.0 mg/kg/injection, schedule: Q01DX001 (ip), vehicle: saline): 156 % of control
- T/C (dose: 300.0 mg/kg/injection, schedule: Q04DX003 (ip), vehicle: saline): 154 % of control
- T/C [10]: 186 % of control
- T/C (dose: 500.0 mg/kg/injection, schedule: Q01DX001 (ip), vehicle: carboxymethylcellulose (CMC)): 179 % of control
- T/C (dose: 600.0 mg/kg/injection, schedule: Q01DX001 (ip), vehicle: saline): 214 % of control
- T/C (dose: 600.0 mg/kg/injection, schedule: Q04DX003 (ip), vehicle: saline): 197 % of control
- T/C (dose: 1000.0 mg/kg/injection, schedule: Q01DX001 (ip), vehicle: carboxymethylcellulose (CMC)): 273 % of control

SMILES: NCC1OC(OC2C(N)CC(N)C(O)C2O)C(NC(=O)c2ccccc2)C(O)C1O (stereo unspecified)
- T/C [12]: 91 % of control
- T/C [13]: 96 % of control
- T/C (dose: 400.0 mg/kg/injection, schedule: Q04DX003 (ip), vehicle: Klucel (hydroxypropylcellulose) (HPC)): 91 % of control

SMILES: CCOC(=O)c1ccnc2ccc(O)cc12
- T/C (dose: 100.0 mg/kg/injection, schedule: Q04DX003 (ip), vehicle: saline with Tween-80): 104 % of control
- T/C (dose: 200.0 mg/kg/injection, schedule: Q04DX003 (ip), vehicle: saline with Tween-80): 96 % of control
- T/C (dose: 400.0 mg/kg/injection, schedule: Q04DX003 (ip), vehicle: saline with Tween-80): 95 % of control

SMILES: N#CC(C#N)C1c2ccccc2Nc2ccccc21
- T/C (dose: 12.5 mg/kg/injection, schedule: Q01DX009 (ip), vehicle: saline with Tween-80): 89 % of control
- T/C (dose: 25.0 mg/kg/injection, schedule: Q01DX009 (ip), vehicle: saline with Tween-80): 89 % of control
- T/C (dose: 50.0 mg/kg/injection, schedule: Q01DX009 (ip), vehicle: saline with Tween-80): 98 % of control and 89 % of control
